# Measured values reported in PubChem BioAssay AID248 (DTP/NCI, 2004).
# “And” between values parts separate entries of the source, which are not always exact repeats. Equal entries are not always repeated. Inconclusive results and toxic doses are left out.
# System: L1210 leukemia ip in BDF1 mice, survival T/C
# Experiment: NCI In Vivo Anticancer Drug Screen. Data for tumor model L1210 Leukemia (intraperitoneal) in B6D2F1 (BDF1) mice
# Settings: endpoint: mean survival time, higher = longer survival
# Outline: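 Each compound was tested against a transplantable tumor grown in mice. The endpoint was survival, with treated animals benchmarked against vehicle controls as a simple ratio.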
# [1] = dose: 100.0 mg/kg/injection, schedule: Q01DX001 (ip), vehicle: saline
# [2] = dose: 200.0 mg/kg/injection, schedule: Q01DX001 (ip), vehicle: saline
# [3] = dose: 400.0 mg/kg/injection, schedule: Q01DX001 (ip), vehicle: saline
# [4] = dose: 100.0 mg/kg/injection, schedule: Q04DX002 (ip), vehicle: Klucel (hydroxypropylcellulose) (HPC)
# [5] = dose: 100.0 mg/kg/injection, schedule: Q01DX009 (ip), vehicle: saline
# [6] = dose: 200.0 mg/kg/injection, schedule: Q01DX009 (ip), vehicle: saline
# [7] = dose: 100.0 mg/kg/injection, schedule: Q04DX003 (ip), vehicle: Klucel (hydroxypropylcellulose) (HPC)
# [8] = dose: 200.0 mg/kg/injection, schedule: Q04DX003 (ip), vehicle: Klucel (hydroxypropylcellulose) (HPC)
smiles,measurement,setting,value
CCN(CC)CCNc1ccc(CO)c(Cl)c1,T/C,"dose: 31.25 mg/kg/injection, schedule: Q01DX009 (ip), vehicle: Klucel (hydroxypropylcellulose) (HPC)",92 % of control
same,T/C,"dose: 62.5 mg/kg/injection, schedule: Q01DX009 (ip), vehicle: Klucel (hydroxypropylcellulose) (HPC)",89 % of control
same,T/C,"dose: 125.0 mg/kg/injection, schedule: Q01DX009 (ip), vehicle: Klucel (hydroxypropylcellulose) (HPC)",106 % of control
Cn1cnc([N+](=O)[O-])c1Sc1nc(N)nc2c1ncn2C1OC(CO)C(O)C1O (stereo not drawn),T/C,"dose: 0.94 mg/kg/injection, schedule: Q01DX Z (ip), vehicle: methylcellulose (MC)",121 % of control
same,T/C,"dose: 1.88 mg/kg/injection, schedule: Q01DX Z (ip), vehicle: methylcellulose (MC)",121 % of control
same,T/C,"dose: 3.75 mg/kg/injection, schedule: Q01DX Z (ip), vehicle: methylcellulose (MC)",116 % of control
same,T/C,"dose: 7.5 mg/kg/injection, schedule: Q01DX Z (ip), vehicle: methylcellulose (MC)",116 % of control
same,T/C,"dose: 15.0 mg/kg/injection, schedule: Q01DX Z (ip), vehicle: methylcellulose (MC)",103 % of control
O=C(Nc1ccc(C2=NCCN2)cc1)c1cccc(C(=O)Nc2ccc(C3=NCCN3)cc2)c1O,T/C,"dose: 2.5 mg/kg/injection, schedule: Q01DX Z (ip), vehicle: carboxymethylcellulose (CMC)",120 % of control
same,T/C,"dose: 5.0 mg/kg/injection, schedule: Q01DX Z (ip), vehicle: carboxymethylcellulose (CMC)",105 % of control
same,T/C,"dose: 7.5 mg/kg/injection, schedule: Q01DX Z (ip), vehicle: carboxymethylcellulose (CMC)",109 % of control
same,T/C,"dose: 10.0 mg/kg/injection, schedule: Q01DX Z (ip), vehicle: carboxymethylcellulose (CMC)",157 % of control
same,T/C,"dose: 15.0 mg/kg/injection, schedule: Q01DX Z (ip), vehicle: carboxymethylcellulose (CMC)",259 % of control
same,T/C,"dose: 20.0 mg/kg/injection, schedule: Q01DX Z (ip), vehicle: carboxymethylcellulose (CMC)",272 % of control
same,T/C,"dose: 30.0 mg/kg/injection, schedule: Q01DX Z (ip), vehicle: carboxymethylcellulose (CMC)",296 % of control
same,T/C,"dose: 31.0 mg/kg/injection, schedule: Q01DX Z (oral), vehicle: carboxymethylcellulose (CMC)",106 % of control
same,T/C,"dose: 62.0 mg/kg/injection, schedule: Q01DX Z (oral), vehicle: carboxymethylcellulose (CMC)",102 % of control
same,T/C,"dose: 125.0 mg/kg/injection, schedule: Q01DX Z (oral), vehicle: carboxymethylcellulose (CMC)",113 % of control
same,T/C,"dose: 250.0 mg/kg/injection, schedule: Q01DX Z (oral), vehicle: carboxymethylcellulose (CMC)",104 % of control
CCC1CN2N=Cc3ccccc3C2=N1 (stereo not drawn),T/C,"dose: 10.0 mg/kg/injection, schedule: Q01DX001 (ip), vehicle: saline",105 % of control
same,T/C,"dose: 20.0 mg/kg/injection, schedule: Q01DX001 (ip), vehicle: saline",103 % of control
SC1c2ccccc2-c2ccc(Br)cc21 (stereo not drawn),T/C,[1],101 % of control
same,T/C,[2],99 % of control
same,T/C,[3],97 % of control
CCCCCCCCc1c(C)nc(N)[nH]c1=O,T/C,[4],100 % of control
same,T/C,"dose: 200.0 mg/kg/injection, schedule: Q04DX002 (ip), vehicle: Klucel (hydroxypropylcellulose) (HPC)",100 % of control
same,T/C,"dose: 400.0 mg/kg/injection, schedule: Q04DX002 (ip), vehicle: Klucel (hydroxypropylcellulose) (HPC)",104 % of control
CN(C)Cc1ccc([N+](=O)[O-])cc1,T/C,"dose: 25.0 mg/kg/injection, schedule: Q01DX009 (ip), vehicle: saline",93 % of control
same,T/C,"dose: 50.0 mg/kg/injection, schedule: Q01DX009 (ip), vehicle: saline",98 % of control
same,T/C,"dose: 75.0 mg/kg/injection, schedule: Q01DX001 (ip), vehicle: other",98 % of control
same,T/C,[5],101 % of control
same,T/C,"dose: 100.0 mg/kg/injection, schedule: Q04DX003 (ip), vehicle: saline",95 % of control
same,T/C,[6],96 % of control
same,T/C,"dose: 200.0 mg/kg/injection, schedule: Q04DX003 (ip), vehicle: saline",87 % of control
O=c1c(-c2ccccc2)c(-c2ccccc2)n2n1C1C=CC2C1 (stereo not drawn),T/C,"dose: 100.0 mg/kg/injection, schedule: Q01DX001 (ip), vehicle: carboxymethylcellulose (CMC)",96 % of control
same,T/C,"dose: 200.0 mg/kg/injection, schedule: Q01DX001 (ip), vehicle: carboxymethylcellulose (CMC)",96 % of control
same,T/C,"dose: 400.0 mg/kg/injection, schedule: Q01DX001 (ip), vehicle: carboxymethylcellulose (CMC)",96 % of control
CC12CCC3c4ccc(OC(=O)Cc5ccc(N(CCCl)CCCl)cc5)cc4CCC3C1CCC2=O (stereo not drawn),T/C,"dose: 100.0 mg/kg/injection, schedule: Q01DX001 (sc), vehicle: steriod suspending solution",97 % of control
same,T/C,"dose: 200.0 mg/kg/injection, schedule: Q01DX001 (sc), vehicle: steriod suspending solution",103 % of control
same,T/C,"dose: 400.0 mg/kg/injection, schedule: Q01DX001 (sc), vehicle: steriod suspending solution",103 % of control
CC(C)N=C(N)CSS(=O)(=O)O,T/C,"dose: 25.0 mg/kg/injection, schedule: Q04DX002 (ip), vehicle: Klucel (hydroxypropylcellulose) (HPC)",101 % of control
same,T/C,"dose: 50.0 mg/kg/injection, schedule: Q04DX002 (ip), vehicle: Klucel (hydroxypropylcellulose) (HPC)",97 % of control
same,T/C,[4],101 % of control and 102 % of control
O=C(O)/C=C\C(=O)Nc1ccccc1NC(=O)/C=C/C(=O)O,T/C,[5],96 % of control
same,T/C,[6],94 % of control
same,T/C,"dose: 400.0 mg/kg/injection, schedule: Q01DX009 (ip), vehicle: saline",91 % of control
NC(N)=N/N=C(/c1ccccc1)c1ccc2ccccc2c1,T/C,"dose: 60.0 mg/kg/injection, schedule: Q01DX Z (oral), vehicle: methylcellulose (MC)",95 % of control
same,T/C,"dose: 120.0 mg/kg/injection, schedule: Q01DX Z (oral), vehicle: methylcellulose (MC)",108 % of control
same,T/C,"dose: 240.0 mg/kg/injection, schedule: Q01DX Z (oral), vehicle: methylcellulose (MC)",111 % of control
same,T/C,"dose: 480.0 mg/kg/injection, schedule: Q01DX Z (oral), vehicle: methylcellulose (MC)",101 % of control
same,T/C,"dose: 720.0 mg/kg/injection, schedule: Q01DX Z (oral), vehicle: methylcellulose (MC)",98 % of control
same,T/C,"dose: 840.0 mg/kg/injection, schedule: Q01DX Z (oral), vehicle: methylcellulose (MC)",112 % of control
C=C(C)C(=O)Nc1ccccc1,T/C,[7],86 % of control
same,T/C,[8],89 % of control
Nc1ccc([N+](=O)[O-])cc1C(O)(C(F)(F)F)C(F)(F)F (tested in a mixture with another compound),T/C,"dose: 100.0 mg/kg/injection, schedule: Q01DX009 (ip), vehicle: saline with Tween-80",101 % of control
same,T/C,"dose: 100.0 mg/kg/injection, schedule: Q04DX003 (ip), vehicle: saline with Tween-80",101 % of control
same,T/C,"dose: 200.0 mg/kg/injection, schedule: Q01DX009 (ip), vehicle: saline with Tween-80",94 % of control
same,T/C,"dose: 200.0 mg/kg/injection, schedule: Q04DX003 (ip), vehicle: saline with Tween-80",100 % of control
same,T/C,"dose: 400.0 mg/kg/injection, schedule: Q04DX003 (ip), vehicle: saline with Tween-80",97 % of control
CC(=N/N(Cc1ccccc1)c1ccccc1)/C(C)=N/N(Cc1ccccc1)c1ccccc1,T/C,"dose: 100.0 mg/kg/injection, schedule: Q01DX001 (ip), vehicle: other",89 % of control
same,T/C,"dose: 200.0 mg/kg/injection, schedule: Q01DX001 (ip), vehicle: other",89 % of control
same,T/C,"dose: 400.0 mg/kg/injection, schedule: Q01DX001 (ip), vehicle: other",89 % of control
COc1ccc(CC[n+]2cccc(C#N)c2)cc1OC,T/C,"dose: 75.0 mg/kg/injection, schedule: Q01DX001 (ip), vehicle: carboxymethylcellulose (CMC)",105 % of control
same,T/C,"dose: 150.0 mg/kg/injection, schedule: Q01DX001 (ip), vehicle: carboxymethylcellulose (CMC)",100 % of control
CCC(NC)c1ccccc1 (stereo not drawn),T/C,"dose: 25.0 mg/kg/injection, schedule: Q04DX002 (ip), vehicle: saline",104 % of control
same,T/C,"dose: 50.0 mg/kg/injection, schedule: Q04DX002 (ip), vehicle: saline",89 % of control
same,T/C,"dose: 100.0 mg/kg/injection, schedule: Q04DX002 (ip), vehicle: saline",106 % of control
O=C(O)CCCc1ccc2sc3ccccc3c2c1,T/C,"dose: 100.0 mg/kg/injection, schedule: Q01DX001 (ip), vehicle: saline with Tween-80",100 % of control
same,T/C,"dose: 200.0 mg/kg/injection, schedule: Q01DX001 (ip), vehicle: saline with Tween-80",101 % of control
Nc1cccc(OCCOc2ccc([N+](=O)[O-])cc2)c1,T/C,[1],102 % of control
same,T/C,[2],104 % of control
same,T/C,[3],100 % of control
O=C1c2ccccc2C(=O)N1C1C=CC=CC=C1,T/C,"dose: 100.0 mg/kg/injection, schedule: Q01DX001 (ip), vehicle: Klucel (hydroxypropylcellulose) (HPC)",95 % of control
same,T/C,[7],91 % of control
same,T/C,"dose: 200.0 mg/kg/injection, schedule: Q01DX001 (ip), vehicle: Klucel (hydroxypropylcellulose) (HPC)",93 % of control
same,T/C,[8],91 % of control
same,T/C,"dose: 400.0 mg/kg/injection, schedule: Q01DX001 (ip), vehicle: Klucel (hydroxypropylcellulose) (HPC)",90 % of control
same,T/C,"dose: 400.0 mg/kg/injection, schedule: Q04DX003 (ip), vehicle: Klucel (hydroxypropylcellulose) (HPC)",93 % of control
